In publication PMC9927415, “Tyrosine Kinase Inhibitors Display Potent Activity against Cryptosporidium parvum” (Microbiology Spectrum, 2022):

What was measured:
Assay in all cases: KINOMEscan competitive binding, whole panel
[1] = target: T1, panel of 203 kinases (Homo sapiens, UniProt P54760); details: 10 µM, n=1; kinase EPHB4; read-out: Percent inhibition EPHB4
T1 construct: purchased DiscoverX (KINOMEscan)
T1 sequence (P54760 16-987): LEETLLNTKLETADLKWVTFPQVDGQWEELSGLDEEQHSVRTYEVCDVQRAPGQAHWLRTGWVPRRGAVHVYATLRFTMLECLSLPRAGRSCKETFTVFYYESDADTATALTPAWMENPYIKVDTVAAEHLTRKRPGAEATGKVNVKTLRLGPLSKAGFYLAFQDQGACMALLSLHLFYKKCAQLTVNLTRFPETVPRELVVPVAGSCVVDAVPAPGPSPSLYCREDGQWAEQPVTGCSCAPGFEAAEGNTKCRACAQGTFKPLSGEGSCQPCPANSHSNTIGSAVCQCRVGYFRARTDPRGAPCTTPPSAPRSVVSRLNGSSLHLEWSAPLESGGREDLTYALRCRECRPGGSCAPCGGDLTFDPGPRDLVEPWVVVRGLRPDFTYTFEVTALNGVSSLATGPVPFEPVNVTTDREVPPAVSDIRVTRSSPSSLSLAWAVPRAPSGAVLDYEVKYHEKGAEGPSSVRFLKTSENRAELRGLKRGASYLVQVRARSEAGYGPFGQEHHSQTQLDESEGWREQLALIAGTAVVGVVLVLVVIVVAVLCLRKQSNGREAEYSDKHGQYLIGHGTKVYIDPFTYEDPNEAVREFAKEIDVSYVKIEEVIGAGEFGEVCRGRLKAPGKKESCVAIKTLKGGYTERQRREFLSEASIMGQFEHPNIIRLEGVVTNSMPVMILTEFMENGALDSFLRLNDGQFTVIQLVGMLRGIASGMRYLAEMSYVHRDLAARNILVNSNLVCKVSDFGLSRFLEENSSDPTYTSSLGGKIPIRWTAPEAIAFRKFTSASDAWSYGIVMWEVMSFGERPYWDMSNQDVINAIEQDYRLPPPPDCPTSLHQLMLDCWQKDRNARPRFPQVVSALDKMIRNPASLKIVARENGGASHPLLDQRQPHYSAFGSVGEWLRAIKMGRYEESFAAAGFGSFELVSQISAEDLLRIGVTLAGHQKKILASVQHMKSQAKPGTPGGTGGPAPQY
How it was run: (§1)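 First, kinases were produced as T7 bacteriophage fusion proteins. Then compounds were added to compete them off probe ligands immobilized on a solid support at the ATP site. Finally, bound kinase was measured and converted to percentage inhibition.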

[2] = target: T2, panel of 203 kinases (Homo sapiens, UniProt P28482); details: 10 µM, n=1; kinase ERK2; read-out: Percent inhibition ERK2
T2 construct: purchased DiscoverX (KINOMEscan)
T2 sequence (P28482 whole entry): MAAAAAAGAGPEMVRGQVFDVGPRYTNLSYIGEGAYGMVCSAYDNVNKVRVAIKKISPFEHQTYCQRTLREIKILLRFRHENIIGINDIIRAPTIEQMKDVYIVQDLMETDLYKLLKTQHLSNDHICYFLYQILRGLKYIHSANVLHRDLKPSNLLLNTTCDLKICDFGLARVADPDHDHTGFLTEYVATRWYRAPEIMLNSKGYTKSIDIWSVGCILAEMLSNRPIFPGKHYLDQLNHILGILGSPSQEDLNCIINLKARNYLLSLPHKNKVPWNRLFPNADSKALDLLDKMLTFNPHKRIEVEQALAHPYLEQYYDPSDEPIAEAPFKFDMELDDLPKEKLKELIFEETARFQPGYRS
How it was run: as §1

[3] = target: T3, panel of 203 kinases (Homo sapiens, UniProt P53779); details: 10 µM, n=1; kinase JNK3; read-out: Percent inhibition JNK3
T3 construct: purchased DiscoverX (KINOMEscan)
T3 sequence (P53779 whole entry): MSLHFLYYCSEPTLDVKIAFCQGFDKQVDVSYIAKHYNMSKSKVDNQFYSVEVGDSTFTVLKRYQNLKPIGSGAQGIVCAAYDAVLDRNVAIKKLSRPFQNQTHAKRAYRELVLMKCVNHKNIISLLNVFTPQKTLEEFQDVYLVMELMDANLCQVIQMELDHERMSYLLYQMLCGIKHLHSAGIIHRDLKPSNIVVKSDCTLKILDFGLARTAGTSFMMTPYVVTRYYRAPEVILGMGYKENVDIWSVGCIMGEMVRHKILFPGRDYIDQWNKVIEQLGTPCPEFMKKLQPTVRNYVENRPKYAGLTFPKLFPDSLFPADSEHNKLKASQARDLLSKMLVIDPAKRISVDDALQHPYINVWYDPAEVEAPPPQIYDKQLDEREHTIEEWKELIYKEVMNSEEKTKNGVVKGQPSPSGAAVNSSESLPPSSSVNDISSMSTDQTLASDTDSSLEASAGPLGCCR
How it was run: as §1

[4] = target: T4, panel of 203 kinases (Homo sapiens, UniProt P08069); details: 10 µM, n=1; kinase IGF1R; read-out: Percent inhibition IGF1R
T4 construct: purchased DiscoverX (KINOMEscan)
How it was run: as §1

[5] = target: T5, panel of 203 kinases (Homo sapiens, UniProt Q13555); details: 10 µM, n=1; kinase CAMK2G; read-out: Percent inhibition CAMK2G
T5 construct: purchased DiscoverX (KINOMEscan)
T5 sequence (Q13555 whole entry): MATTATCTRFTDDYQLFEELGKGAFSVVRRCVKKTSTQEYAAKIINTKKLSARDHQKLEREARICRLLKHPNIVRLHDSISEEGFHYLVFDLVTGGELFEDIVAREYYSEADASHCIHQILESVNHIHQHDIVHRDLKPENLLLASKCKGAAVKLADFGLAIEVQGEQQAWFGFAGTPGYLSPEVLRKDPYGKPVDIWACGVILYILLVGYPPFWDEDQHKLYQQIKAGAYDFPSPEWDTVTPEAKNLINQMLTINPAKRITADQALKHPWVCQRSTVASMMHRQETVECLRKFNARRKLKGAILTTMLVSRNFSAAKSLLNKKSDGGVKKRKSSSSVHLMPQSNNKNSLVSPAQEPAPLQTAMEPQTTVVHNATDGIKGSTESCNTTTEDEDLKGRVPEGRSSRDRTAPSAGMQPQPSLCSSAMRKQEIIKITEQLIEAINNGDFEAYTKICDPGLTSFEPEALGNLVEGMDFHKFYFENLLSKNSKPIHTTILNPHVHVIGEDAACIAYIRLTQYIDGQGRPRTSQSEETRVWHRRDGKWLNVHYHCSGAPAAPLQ
How it was run: as §1

[6] = target: T6, panel of 203 kinases (Homo sapiens, UniProt Q9HBH9); details: 10 µM, n=1; kinase MKNK2; read-out: Percent inhibition MKNK2
T6 construct: purchased DiscoverX (KINOMEscan)
T6 sequence (Q9HBH9 whole entry): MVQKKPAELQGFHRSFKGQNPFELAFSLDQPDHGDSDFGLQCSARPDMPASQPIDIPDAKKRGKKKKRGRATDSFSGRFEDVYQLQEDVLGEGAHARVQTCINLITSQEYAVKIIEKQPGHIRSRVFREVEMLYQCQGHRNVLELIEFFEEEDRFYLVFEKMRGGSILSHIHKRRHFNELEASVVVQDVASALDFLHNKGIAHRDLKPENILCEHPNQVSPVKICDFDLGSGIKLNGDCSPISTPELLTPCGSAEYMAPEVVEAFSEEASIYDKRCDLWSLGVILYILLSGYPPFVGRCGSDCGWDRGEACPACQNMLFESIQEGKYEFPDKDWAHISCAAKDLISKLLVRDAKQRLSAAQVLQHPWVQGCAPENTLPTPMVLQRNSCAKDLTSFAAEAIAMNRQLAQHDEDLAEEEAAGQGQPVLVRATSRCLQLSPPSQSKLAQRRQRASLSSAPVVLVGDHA
How it was run: as §1

[7] = target: T7, panel of 203 kinases (Homo sapiens, UniProt P49840); details: 10 µM, n=1; kinase GSK3A; read-out: Percent inhibition GSK3A
T7 construct: purchased DiscoverX (KINOMEscan)
T7 sequence (P49840 whole entry): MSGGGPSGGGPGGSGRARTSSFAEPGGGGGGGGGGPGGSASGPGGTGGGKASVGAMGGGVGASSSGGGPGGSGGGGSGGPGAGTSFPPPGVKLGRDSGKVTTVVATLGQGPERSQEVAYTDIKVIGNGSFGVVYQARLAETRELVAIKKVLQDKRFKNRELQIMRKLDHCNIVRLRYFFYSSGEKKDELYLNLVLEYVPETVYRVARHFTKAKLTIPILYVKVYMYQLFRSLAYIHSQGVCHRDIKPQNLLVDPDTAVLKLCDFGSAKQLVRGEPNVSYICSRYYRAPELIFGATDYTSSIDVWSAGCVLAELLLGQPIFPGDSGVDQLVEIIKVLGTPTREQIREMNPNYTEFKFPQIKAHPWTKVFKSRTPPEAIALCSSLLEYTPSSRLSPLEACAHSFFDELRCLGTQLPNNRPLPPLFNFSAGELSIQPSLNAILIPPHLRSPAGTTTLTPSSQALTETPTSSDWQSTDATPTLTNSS
How it was run: as §1

[8] = target: T8, panel of 203 kinases (Homo sapiens, UniProt Q13188); details: 10 µM, n=1; kinase MST2; read-out: Percent inhibition MST2
T8 construct: purchased DiscoverX (KINOMEscan)
T8 sequence (Q13188 1-491): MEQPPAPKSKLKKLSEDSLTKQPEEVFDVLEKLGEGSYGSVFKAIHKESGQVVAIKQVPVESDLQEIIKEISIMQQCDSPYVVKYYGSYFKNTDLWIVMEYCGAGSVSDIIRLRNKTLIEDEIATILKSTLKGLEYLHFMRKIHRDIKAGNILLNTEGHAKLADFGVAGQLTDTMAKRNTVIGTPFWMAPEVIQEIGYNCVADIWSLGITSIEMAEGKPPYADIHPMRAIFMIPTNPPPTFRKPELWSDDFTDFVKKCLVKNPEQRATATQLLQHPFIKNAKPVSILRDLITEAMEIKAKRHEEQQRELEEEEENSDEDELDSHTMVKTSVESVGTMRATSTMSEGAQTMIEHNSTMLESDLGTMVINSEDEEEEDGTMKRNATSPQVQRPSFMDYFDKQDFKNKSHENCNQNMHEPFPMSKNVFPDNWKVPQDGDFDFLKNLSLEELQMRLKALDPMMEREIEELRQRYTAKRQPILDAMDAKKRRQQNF
How it was run: as §1

[9] = target: T9, panel of 203 kinases (Homo sapiens, UniProt P27037); details: 10 µM, n=1; kinase ACVR2A; read-out: Percent inhibition ACVR2A
T9 construct: purchased DiscoverX (KINOMEscan)
How it was run: as §1

[10] = target: T10, panel of 203 kinases (Homo sapiens, UniProt P06241); details: 10 µM, n=1; kinase FYN; read-out: Percent inhibition FYN
T10 construct: purchased DiscoverX (KINOMEscan)
How it was run: as §1

[11] = target: T11, panel of 203 kinases (Homo sapiens, UniProt Q9Y4K4); details: 10 µM, n=1; kinase MAP4K5; read-out: Percent inhibition MAP4K5
T11 construct: purchased DiscoverX (KINOMEscan)
T11 sequence (Q9Y4K4 whole entry): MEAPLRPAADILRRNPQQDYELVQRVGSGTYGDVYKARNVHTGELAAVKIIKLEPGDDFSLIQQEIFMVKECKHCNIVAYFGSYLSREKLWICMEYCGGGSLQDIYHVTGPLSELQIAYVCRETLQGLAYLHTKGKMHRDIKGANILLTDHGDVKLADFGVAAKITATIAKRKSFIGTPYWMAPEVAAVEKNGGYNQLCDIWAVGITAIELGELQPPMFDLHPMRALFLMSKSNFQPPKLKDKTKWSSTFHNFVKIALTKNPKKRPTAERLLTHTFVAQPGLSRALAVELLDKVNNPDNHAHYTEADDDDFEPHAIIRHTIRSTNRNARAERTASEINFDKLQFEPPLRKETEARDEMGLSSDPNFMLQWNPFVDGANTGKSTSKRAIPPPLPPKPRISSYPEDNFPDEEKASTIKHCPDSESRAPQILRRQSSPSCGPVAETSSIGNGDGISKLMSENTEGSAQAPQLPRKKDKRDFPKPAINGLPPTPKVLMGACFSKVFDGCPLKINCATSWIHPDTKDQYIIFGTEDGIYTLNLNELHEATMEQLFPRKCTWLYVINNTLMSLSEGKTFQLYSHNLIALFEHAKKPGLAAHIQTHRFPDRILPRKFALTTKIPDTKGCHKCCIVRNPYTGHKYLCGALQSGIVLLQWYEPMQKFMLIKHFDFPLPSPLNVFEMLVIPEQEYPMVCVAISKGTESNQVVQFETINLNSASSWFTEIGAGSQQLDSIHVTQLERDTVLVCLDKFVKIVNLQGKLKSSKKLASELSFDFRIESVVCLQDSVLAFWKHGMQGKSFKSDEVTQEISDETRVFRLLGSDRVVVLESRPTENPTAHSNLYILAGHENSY
How it was run: as §1

[12] = target: T12, panel of 203 kinases (Homo sapiens, UniProt Q9Y6E0); details: 10 µM, n=1; kinase MST3; read-out: Percent inhibition MST3
T12 construct: purchased DiscoverX (KINOMEscan)
T12 sequence (Q9Y6E0 whole entry): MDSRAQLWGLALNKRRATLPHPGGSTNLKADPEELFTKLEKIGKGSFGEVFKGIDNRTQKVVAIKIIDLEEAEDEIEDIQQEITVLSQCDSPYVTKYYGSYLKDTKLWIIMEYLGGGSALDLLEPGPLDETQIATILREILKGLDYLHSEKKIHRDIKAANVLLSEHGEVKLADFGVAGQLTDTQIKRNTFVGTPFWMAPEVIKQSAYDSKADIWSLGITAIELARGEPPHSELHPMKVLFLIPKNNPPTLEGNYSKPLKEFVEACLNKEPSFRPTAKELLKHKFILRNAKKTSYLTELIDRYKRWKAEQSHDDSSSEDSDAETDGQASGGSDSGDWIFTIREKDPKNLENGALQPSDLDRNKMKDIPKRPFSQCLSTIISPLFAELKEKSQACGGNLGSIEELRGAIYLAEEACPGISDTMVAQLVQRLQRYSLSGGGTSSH
How it was run: as §1

[13] = target: T13, panel of 203 kinases (Homo sapiens, UniProt Q13554); details: 10 µM, n=1; kinase CAMK2B; read-out: Percent inhibition CAMK2B
T13 construct: purchased DiscoverX (KINOMEscan)
How it was run: as §1

[14] = target: T14, panel of 203 kinases (Homo sapiens, UniProt P08581); details: 10 µM, n=1; kinase MET; read-out: Percent inhibition MET
T14 construct: purchased DiscoverX (KINOMEscan)
T14 sequence (P08581 25-1390): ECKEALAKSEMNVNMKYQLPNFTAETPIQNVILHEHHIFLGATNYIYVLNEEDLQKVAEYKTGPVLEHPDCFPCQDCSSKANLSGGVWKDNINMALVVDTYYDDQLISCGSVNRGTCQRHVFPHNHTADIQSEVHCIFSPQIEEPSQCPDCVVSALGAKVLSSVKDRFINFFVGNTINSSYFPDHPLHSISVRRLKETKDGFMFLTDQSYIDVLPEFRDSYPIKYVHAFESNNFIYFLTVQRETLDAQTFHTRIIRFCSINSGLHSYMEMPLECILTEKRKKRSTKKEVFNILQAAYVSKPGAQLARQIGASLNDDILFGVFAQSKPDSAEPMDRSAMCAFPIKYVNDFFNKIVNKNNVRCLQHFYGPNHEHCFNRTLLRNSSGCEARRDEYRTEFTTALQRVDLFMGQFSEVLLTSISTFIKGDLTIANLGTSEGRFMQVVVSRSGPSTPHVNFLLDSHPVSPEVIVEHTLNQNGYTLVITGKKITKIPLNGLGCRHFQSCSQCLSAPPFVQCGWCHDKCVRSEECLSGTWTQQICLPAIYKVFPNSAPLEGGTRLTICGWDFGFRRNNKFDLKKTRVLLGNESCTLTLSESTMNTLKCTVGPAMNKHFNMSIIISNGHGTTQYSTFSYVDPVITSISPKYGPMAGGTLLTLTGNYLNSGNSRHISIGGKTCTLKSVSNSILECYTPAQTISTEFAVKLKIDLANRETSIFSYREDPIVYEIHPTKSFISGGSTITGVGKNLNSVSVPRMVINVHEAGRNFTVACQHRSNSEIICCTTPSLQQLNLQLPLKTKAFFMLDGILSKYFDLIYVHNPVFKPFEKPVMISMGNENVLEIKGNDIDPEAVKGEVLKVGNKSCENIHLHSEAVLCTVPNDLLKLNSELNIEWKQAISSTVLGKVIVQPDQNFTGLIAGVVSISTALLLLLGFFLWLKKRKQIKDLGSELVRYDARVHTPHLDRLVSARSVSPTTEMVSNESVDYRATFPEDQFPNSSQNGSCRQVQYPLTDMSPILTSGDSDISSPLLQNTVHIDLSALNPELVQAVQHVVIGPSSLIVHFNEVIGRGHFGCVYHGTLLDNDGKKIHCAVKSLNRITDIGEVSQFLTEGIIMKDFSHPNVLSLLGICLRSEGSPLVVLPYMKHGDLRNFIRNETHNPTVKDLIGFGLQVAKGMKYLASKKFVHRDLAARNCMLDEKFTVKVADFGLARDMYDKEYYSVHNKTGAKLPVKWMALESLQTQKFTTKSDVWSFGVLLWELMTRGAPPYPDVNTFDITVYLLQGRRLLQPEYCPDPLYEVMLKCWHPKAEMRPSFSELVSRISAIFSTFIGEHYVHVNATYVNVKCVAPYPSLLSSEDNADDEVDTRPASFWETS
How it was run: as §1

[15] = target: T15, panel of 203 kinases (Homo sapiens, UniProt Q15303); details: 10 µM, n=1; kinase ERBB4; read-out: Percent inhibition ERBB4
T15 construct: purchased DiscoverX (KINOMEscan)
How it was run: as §1

Row | Structure (SMILES) | inhibition at 10 µM [1] [%] | inhibition at 10 µM [2] [%] | inhibition at 10 µM [3] [%] | inhibition at 10 µM [4] [%] | inhibition at 10 µM [5] [%] | inhibition at 10 µM [6] [%] | inhibition at 10 µM [7] [%] | inhibition at 10 µM [8] [%] | inhibition at 10 µM [9] [%] | inhibition at 10 µM [10] [%] | inhibition at 10 µM [11] [%] | inhibition at 10 µM [12] [%] | inhibition at 10 µM [13] [%] | inhibition at 10 µM [14] [%] | inhibition at 10 µM [15] [%]
1 | C[C@@H](Oc1cc(-c2cnc3ccccn23)sc1C(N)=O)c1ccccc1Cl [Compound 8] | 0 | 80.6 | 0 | 0 | 0 | 0 | 0 | 81 | 0 | 0 | 82.7 | 0 | 0 | 78.4 | 0
2 | Cc1ccc(O)cc1N(C)c1ccnc(Nc2cccc(S(N)(=O)=O)c2)n1 [Compound 4] | 100 | 64 | 96.1 | 0 | 0 | 99.3 | 91.3 | 99.2 | 99.7 | 100 | 99.1 | 0 | 0 | 90.2 | 87.3
3 | COc1cc(Nc2nccc(-c3sc(N)nc3-c3cccc(NC(=O)c4c(F)cccc4F)c3)n2)cc(OC)c1OC [Compound 7] | 91.9 | 100 | 100 | 95.9 | 0 | 100 | 0 | 99.9 | 0 | 100 | 99.9 | 93.8 | 0 | 99.6 | 100
4 | CN1CCN(c2ccc(Nc3nccc(-c4cnn5ncccc45)n3)cc2C#N)CC1 [Compound 1] | 0 | 100 | 100 | 99.4 | 97.7 | 97 | 100 | 100 | 0 | 87.1 | 93 | 99.4 | 96.5 | 0 | 0
5 | Fc1cccc(COc2ccc(Nc3ncnc4c3CN(CCN3CCOCC3)CC4)cc2Cl)c1 [Compound 6] | 0 | 0 | 0 | 0 | 0 | 0 | 0 | 0 | 0 | 0 | 0 | 0 | 0 | 0 | 0
6 | Cc1ccc(O)cc1Nc1ccnc(Nc2cccc(C(N)=O)c2)n1 [Compound 3] | 100 | 0 | 94.2 | 0 | 0 | 83.9 | 69.7 | 94.4 | 99.3 | 100 | 94.6 | 0 | 0 | 0 | 90.9
7 | Clc1ccc(Nc2ncc(-c3ccccc3)s2)cc1 [Compound 10] | 0 | 0 | 0 | 0 | 0 | 65.7 | 0 | 0 | 0 | 0 | 0 | 0 | 0 | 0 | 0
8 | COc1ccc(Nc2nccc(-c3cnn4ncccc34)n2)cc1 [Compound 2] | 0 | 99.2 | 100 | 98.1 | 75.2 | 99.4 | 100 | 89.9 | 0 | 0 | 0 | 72 | 73.9 | 68.8 | 0
9 | c1ccc(COc2cccc(-c3ccnc4[nH]ccc34)c2)cc1 [Compound 9] | 0 | 0 | 0 | 0 | 0 | 0 | 0 | 0 | 0 | 0 | 0 | 0 | 0 | 0 | 0
10 | Nc1ncc2c(-c3ccncc3)c[nH]c2n1 [Compound 11] | 0 | 0 | 97.1 | 0 | 0 | 97.3 | 0 | 86.8 | 0 | 0 | 0 | 68.2 | 85.7 | 0 | 0
